These results are taken from patent US9238069B2, “Method of sensitizing cancer cells to the cytotoxic effects of death receptor ligands in cancer treatment” (The United States of America, as represented by the …, priority 2009, dated 2016).

One assay has as its system ACHN renal cancer cells. The assay can be described thus: SRB dose-response assay for synergy with TRAIL (percent growth inhibition). The class given is cell-based. Particulars: 4 h presensitization, TRAIL 20 ng/mL, FIG. 11. The text has this:
FIG. 11 depicts the dose-response curves for withanolide E and withanolide S in the presence of TRAIL. The y-axis represents percent growth inhibition for ACHN renal cancer cells. The lines labeled “−TRAIL” are the dose-response curves for withanolide E and withanolide S in the absence of TRAIL. The lines labeled “predicted +TRAIL” is the predicted additive percent growth inhibition resulting from addition of the growth inhibition due to withanolide E and withanolide S plus TRAIL. The lines labeled “Actual +TRAIL” is the actual percent growth inhibition determined by the assay.
This Example illustrates another aspect of the assay. […] Controls were combined on each assay plate and included: SRB background absorbance (no cells), untreated (DMSO-only) cells, TRAIL-only cells, cytotoxicity positive control −TRAIL (sanguinarine hydrochloride; one concentration), and synergy positive control +TRAIL (bortezomib; one conconcentrion plus a dose-response range).
Compound dilutions were prepared in clear test medium and added to cells. […] Dye was resolubilized by addition of 10 mM TRIZMA base solution (30 μL) and resuspended on a rotary shaker for a few minutes before reading the plates for absorbance at 520 nm using a Safire plate reader (Tecan Group Ltd., Männedorf, Switzerland). […]

The next assay relates to caspase-8 in ACHN cells. Put plainly: Western blot of caspase-8 cleavage after sensitizer plus TRAIL. The class given is cell-based. Particulars: compound 10 μM, sensitized 4 h, then TRAIL 40 ng/mL, FIG. 5. The protocol:
This Example illustrates cleavage of caspase resulting from treatment of cells with anolides in combination with TRAIL. ACHN cells were seeded into 6-well tissue culture plates at […] cells/well in clear test medium and the next day compound was added to a final concentration of 10 μM. Cells were sensitized for 4 h followed by addition of TRAIL to 40 ng/mL final concentration. Cells were harvested in lysis buffer at short intervals after addition of the TRAIL reagent using 165 μL per well. Lysis buffer contained: 50 mM Tris-Cl (pH 8.0), 300 mM NaCl, 5 mM EDTA, 0.5% Triton X-100, 40 μM Z-VAD-FMK, plus one mini-complete protease inhibitor tablet (Roche, Mannheim, Germany) or 100 μL Halt Protease Inhibitor Single-Use Cocktail (Pierce Biotechnology, Inc., Rockford, Ill.) per 6 mL buffer. Lysates were clarified by centrifugation at 4° C. for 15 min at 15,000 rpm and protein content normalized using the bicinchonic acid (BCA) assay (Pierce Biotechnology, Inc.).
Lysates were run under reducing conditions at 20 μg total protein per lane, in NuPAGE 4-12% Bis-Tris gels (1.0 mm×12 well; Invitrogen), using MESS DS running buffer and added antioxidant in the upper chamber. […]
The Western blots determined using the above protocol for withanolide E is depicted in FIG. 5.
(In western blotting, separated proteins are transferred to a membrane and probed.)

With withanolide E, in the assay with ACHN renal cancer cells, the “percent growth inhibition in combination with TRAIL versus sensitizer alone or TRAIL alone (synergistic response)” value was “substantially greater”. The “cleavage of caspase-8” value in the assay on caspase-8 in ACHN cells is listed as “resulted in the cleavage of caspase-8”.

Turning to withanolide S, the “percent growth inhibition in combination with TRAIL versus sensitizer alone or TRAIL alone (synergistic response)” value with ACHN renal cancer cells is given as “substantially greater”.
